Test results taken from US20260217686A1, “N-Myristoyltransferase Inhibitors And Methods Of Use” (Seattle Children's Hospital (d/b/a Seattle Children's …, priority 2022, published 2026).
Like-named read-outs stand apart in the source and are kept apart here.

Assays:
[1] = biological target: T1, HsNMT1 (Homo sapiens, UniProt P30419); assay: NMT activity assay (CPM detection of free CoA), human NMT; format: biochemical; conditions: read-out: HsNMT IC50 (nM)*
T1 construct: made in house
T1 sequence (P30419 1-496): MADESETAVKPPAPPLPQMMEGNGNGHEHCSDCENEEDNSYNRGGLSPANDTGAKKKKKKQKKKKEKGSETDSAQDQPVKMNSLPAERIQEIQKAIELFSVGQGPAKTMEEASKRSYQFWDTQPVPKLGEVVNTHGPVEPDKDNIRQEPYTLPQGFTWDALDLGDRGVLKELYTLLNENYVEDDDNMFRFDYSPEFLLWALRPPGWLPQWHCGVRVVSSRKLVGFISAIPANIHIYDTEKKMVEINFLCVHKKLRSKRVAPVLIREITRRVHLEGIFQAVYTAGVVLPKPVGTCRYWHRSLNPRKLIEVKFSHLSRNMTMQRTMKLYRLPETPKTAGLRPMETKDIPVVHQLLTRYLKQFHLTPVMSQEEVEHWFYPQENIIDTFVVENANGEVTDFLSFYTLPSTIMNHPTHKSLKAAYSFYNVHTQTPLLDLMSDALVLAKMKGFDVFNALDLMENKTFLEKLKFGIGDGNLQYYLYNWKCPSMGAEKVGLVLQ

[2] = biological target: T2, PvNMT (Plasmodium vivax, UniProt A5K1A2); assay: biochemical; format: biochemical
T2 construct: Gly-Pro stays on the protein after cleavage) (N, cleaved yes); host or cells: E. coli Rosetta 2 (DE3) pRARE
T2 sequence (A5K1A2 entry or part of it): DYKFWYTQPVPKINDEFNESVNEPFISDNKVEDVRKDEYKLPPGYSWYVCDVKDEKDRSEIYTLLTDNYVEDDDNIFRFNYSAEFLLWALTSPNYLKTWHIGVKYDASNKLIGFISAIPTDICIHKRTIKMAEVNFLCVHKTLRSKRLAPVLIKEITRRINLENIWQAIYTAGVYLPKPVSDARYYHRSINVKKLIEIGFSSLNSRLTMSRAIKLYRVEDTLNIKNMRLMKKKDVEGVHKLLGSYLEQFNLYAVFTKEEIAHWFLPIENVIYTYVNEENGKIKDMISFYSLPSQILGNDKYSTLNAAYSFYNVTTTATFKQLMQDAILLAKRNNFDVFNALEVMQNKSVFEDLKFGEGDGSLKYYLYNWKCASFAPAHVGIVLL
Text: NMT activity was indirectly measured through the detection of free CoA by the thiol-reactive probe 7-diethylamino-3-(4′-maleimidylphenyl)-4-methylcoumarin (CPM).
This study aimed to identify NMT is with high selectivity for the P. vivax enzyme compared with human NMTs and high potency against the different stages of the P. vivax parasite. For this purpose, a structure-guided approach was applied using previously reported NMT inhibitors as scaffolds to develop a new generation of PvNMT-targeting compounds. The NMT activity of these inhibitors was first measured using biochemical assays through the detection of free CoA by the thiol-reactive probe 7-diethylamino-3-(4′-maleimidylphenyl)-4-methylcoumarin (CPM). Their antiparasitic activity were further evaluated by measuring blood-stage parasite load and inhibition of P. vivax liver-stage schizont and hypnozoite infection. […] Cytotoxicity was assessed in the human hepatoma HepG2 cell line. Synchronized P. falciparum NF54 ring-stage parasites were used for measuring blood-stage parasite load. […] In vitro experiments were repeated at least twice. A single concentration of each inhibitor was initially used to evaluate the inhibition of P. vivax liver stage schizont and hypnozoite infection, followed by the determination of the dose-response relationship.
To measure the activity of the purified PvNMT an assay was adapted from the literature. […] Working stock solutions were made fresh adding DMSO for final concentrations of either 1% or 5% DMSO. […] The plate was incubated for 30 min at room temperature. The enzymatic reaction was initiated by adding 50 μL of reaction substrate containing 10 µM myrCoA and PfARF, as well as 8 μM CPM. Fluorescent readings were taken on a Spectra M2 plate reader (Molecular Devices) with excitation at 385 nm and emission at 485 nm. Fluorescent intensity was measured continuously in one-minute intervals for 45 minutes. Background fluorescence and noise were determined by replacing each constituent of the reaction individually with assay buffer containing 1% DMSO and values were deducted from experimental samples. The enzymatic reactions were set up with varying pHs (6.0-8.5) of the assay buffer to determine optimal reaction conditions with minimal background and off target reactions. In lieu of compound, 10 μL of 10% DMSO/H2O was added to each well. Fluorescence signal was obtained continuously for 45 min. […] IC50 calculations were calculated using Prism (GraphPad Software, Inc).

[3] = Table 1, mean values of two or more determinations
[4] = Table 1, enzyme selectivity calculated as HsNMT IC50/PvNMT IC50

Row | Molecule | IC50 [1, 3] [nM] | IC50 [2, 3] [nM] | IC50 ([2]; Table 2) [nM] | also measured
1 | Cc1nn(C)c(C)c1CCOc1cccnc1-c1ccnc(N2CCNCC2)c1 [Compound 12a, 2′-(piperazin-1-yl)-3-(2-(1,3,5-trimethyl-1H-pyrazol-4-yl)ethoxy)-2,4′-bipyridine] | 5400 | 36.8 |  | SI** [2, 4]: 146.7
2 | Cc1n[nH]c(C)c1CCOc1cc(F)ccc1-c1cccc(OCCN(C)C)c1 [Compound 26i, 2-((2′-(2-(3,5-dimethyl-1H-pyrazol-4-yl)ethoxy)-4′-fluoro-[1,1′-biphenyl]-3-yl)oxy)-N,N-dimethylethan-1-amine] |  |  | 242 | IC50 ([1]; Table 2): 13900 nM; SI** ([2]; Table 2, HsNMT IC50/PvNMT IC50): 57
3 | Cc1n[nH]c(C)c1CCOc1ccc2ccccc2c1-c1ccnc(N2CCNCC2)c1 [Compound 30e, 1-(4-(2-(2-(3,5-dimethyl-1H-pyrazol-4-yl)ethoxy)naphthalen-1-yl)pyridin-2-yl)piperazine] |  |  | 2880 | 
4 | Cc1nn(C)c(C)c1CCOc1cc(F)ccc1-c1ccnc(N2CCNCC2)c1 [Compound 12e, 1-(4-(4-fluoro-2-(2-(1,3,5-trimethyl-1H-pyrazol-4-yl)ethoxy)phenyl)pyridin-2-yl)piperazine] | 124 | 15.8 |  | SI** [2, 4]: 7.8
5 | Cc1nn(C)c(C)c1CCOc1cccnc1-c1cccc(N2CCNCC2)c1 [Compound 12b, 1-(3-(3-(2-(1,3,5-trimethyl-1H-pyrazol-4-yl)ethoxy)pyridin-2-yl)phenyl)piperazine] | 20800 | 80.2 |  | 
6 | Cc1n[nH]c(C)c1CCOc1ccccc1-c1cccc(OCCN(C)C)c1 [Compound 26h, 2-((2′-(2-(3,5-dimethyl-1H-pyrazol-4-yl)ethoxy)-[1,1′-biphenyl]-3-yl)oxy)-N,N-dimethylethan-1-amine] |  |  | 1560 | 
7 | Cc1n[nH]c(C)c1CCOc1ccccc1-c1ccnc(N2CCNCC2)c1 [Compound 12n, 1-(4-(2-(2-(3,5-dimethyl-1H-pyrazol-4-yl)ethoxy)phenyl)pyridin-2-yl)piperazine] | 39700 | 604 |  | SI** [2, 4]: 65.7
8 | CN(C)CCOc1cccc(-c2c(OCCc3cccnc3)ccc3ccccc23)c1 [Compound 30d, N,N-dimethyl-2-(3-(2-(2-(pyridin-3-yl)ethoxy)naphthalen-1-yl)phenoxy)ethan-1-amine] |  |  | 7210 | 
9 | Cc1n[nH]c(C)c1CCOc1cccnc1-c1cccc(OCCN(C)C)c1 [Compound 26g, 2-(3-(3-(2-(3,5-dimethyl-1H-pyrazol-4-yl)ethoxy)pyridin-2-yl)phenoxy)-N,N-dimethylethan-1-amine] |  |  | 19400 | 
10 | Fc1ccc(-c2cc(N3CCNCC3)ncn2)c(OCCc2cccnc2)c1 [Compound 16d, 4-(4-fluoro-2-(2-(pyridine-3-yl)ethoxy)phenyl)-6-(piperazin-1-yl)pyrimidine] |  | 3390 |  | 
11 | Cc1nn(C)c(C)c1CCOc1cc(F)ccc1-c1cccc(N2CCNCC2)c1 [Compound 12f, 1-(4′-fluoro-2′-(2-(1,3,5-trimethyl-1H-pyrazol-4-yl)ethoxy)-[1,1′-biphenyl]-3-yl)piperazine] | 699 | 15.9 |  | SI** [2, 4]: 43.9
12 | CN(C)CCOc1cccc(-c2ncccc2OCCc2cccnc2)c1 [Compound 26d, N,N-dimethyl-2-(3-(3-(2-(pyridin-3-yl)ethoxy)pyridin-2-yl)phenoxy)ethan-1-amine] |  |  | 14800 | 
13 | c1cncc(CCOc2ccccc2-c2ccnc(N3CCNCC3)c2)c1 [Compound 12j, 1-(4-(2-(2-(pyridin-3-yl)ethoxy)phenyl)pyridin-2-yl)piperazine] | 27400 | 124 |  | SI** [2, 4]: 220.6
14 | Cc1nn(C)c(C)c1CCOc1ccc2ccccc2c1-c1cccc(OCCN(C)C)c1 [Compound 30b, N,N-dimethyl-2-(3-(2-(2-(1,3,5-trimethyl-1H-pyrazol-4-yl)ethoxy)naphthalen-1-yl)phenoxy)ethan-1-amine] |  |  | 19800 | 
15 | 3-(2′-(3,5-dimethyl-1H-pyrazol-4-yl)ethoxy-4′-fluoro-[1,1′-biphenyl]-3-yl)piperazine [Compound 12p] | 23100 | 368 |  | SI** [2, 4]: 62.7
16 | CN(C)CCOc1cccc(-c2ccc(F)cc2OCCc2cccnc2)c1 [Compound 26f, 2-((4′-fluoro-2′-(2-(pyridin-3-yl)ethoxy)-[1,1′-biphenyl]-3-yl)oxy)-N,N-dimethylethan-1-amine] |  |  | 622 | IC50 ([1]; Table 2): > 40000 nM; SI** ([2]; Table 2, HsNMT IC50/PvNMT IC50): 62.3
17 | Cc1n[nH]c(C)c1CCOc1cc(F)ccc1-c1cc(N2CCNCC2)ncn1 [Compound 16e, 4-(2-(2-(3,5-dimethyl-1H-pyrazol-4-yl)ethoxy)-4-fluorophenyl)-6-(piperazin-1-yl)pyrimidine] |  | 5070 |  | 
18 | Cc1nn(C)c(C)c1CCOc1ccccc1-c1ccnc(N2CCNCC2)c1 [Compound 12c, 1-(4-(2-(2-(1,3,5-trimethyl-1H-pyrazol-4-yl)ethoxy)phenyl)pyridin-2-yl)piperazine] | 599 | 9.48 |  | SI** [2, 4]: 63.1
19 | Cc1n[nH]c(C)c1CCOc1ccccc1-c1cc(N2CCNCC2)ncn1 [Compound 16f, 4-(2-(2-(3,5-dimethyl-1H-pyrazol-4-yl)ethoxy)phenyl)-6-(piperazin-1-yl)pyrimidine] |  | 14000 |  | 
20 | Cc1nn(C)c(C)c1CCOc1ccccc1-c1cccc(N2CCNCC2)c1 [Compound 12d, 1-(2′-(2-(1,3,5-trimethyl-1H-pyrazol-4-yl)ethoxy)-[1,1′-biphenyl]-3-yl)piperazine] | 7440 | 48.5 |  | SI** [2, 4]: 153.4
21 | Cc1n[nH]c(C)c1CCOc1cccnc1-c1cccc(N2CCNCC2)c1 [Compound 12m, 1-(3-(3-(2-(3,5-dimethyl-1H-pyrazol-4-yl)ethoxy)pyridin-2-yl)phenyl)piperazine] |  | 12500 |  | 
22 | Cc1n[nH]c(C)c1CCOc1cccnc1-c1ccnc(N2CCNCC2)c1 [Compound 12o] |  | 3120 |  | 
23 | Cc1nn(C)c(C)c1CCOc1ccccc1-c1cc(N2CCNCC2)ncn1 [Compound 16a, 4-(piperazin-1-yl)-6-(2-(2-(1,3,5-trimethyl-1H-pyrazol-4-yl)ethoxy)phenyl)pyrimidine] |  | 9390 |  | 
24 | c1cncc(CCOc2ccccc2-c2cccc(N3CCNCC3)c2)c1 [Compound 12i, 1-(2′-(2-(pyridin-3-yl)ethoxy)-[1,1′-biphenyl]-3-yl)piperazine] |  | 1540 |  | 
25 | Fc1ccc(-c2cccc(N3CCNCC3)c2)c(OCCc2cccnc2)c1 [Compound 12k, 1-(4′-fluoro-2′-(2-(pyridin-3-yl)ethoxy)-[1,1′-biphenyl]-3-yl)piperazine] |  | 3120 |  | 
26 | c1cncc(CCOc2ccccc2-c2cc(N3CCNCC3)ncn2)c1 [Compound 16c, 4-(piperazin-1-yl)-6-(2-(2-(pyridine-3-yl)ethoxy)phenyl)pyrimidine] |  | > 40000 |  | 
27 | CN(C)CCOc1cccc(-c2ccccc2OCCc2cccnc2)c1 [Compound 26e, N,N-dimethyl-2-((2′-(2-(pyridin-3-yl)ethoxy)-[1,1′-biphenyl]-3-yl)oxy)ethan-1-amine] |  |  | 12800 | 
28 | Cc1n[nH]c(C)c1CCOc1ccc2ccccc2c1-c1cccc(OCCN(C)C)c1 [Compound 30f, 2-(3-(2-(2-(3,5-dimethyl-1H-pyrazol-4-yl)ethoxy)naphthalen-1-yl)phenoxy)-N,N-dimethylethan-1-amine] |  |  | 25400 | 
